Counter-ions that a name gives are not always drawn.

What is called melting point is the temperature of the solid-liquid transition. `COc1ccccc1SC[C@@H](C)CN[C@@H]1COc2cccc(C)c2SC1` (as salt: maleate) [Compound 1-15, 3-(R)-[3-(2-Methoxyphenylthio)-2-(S)-methylpropyl]amino-6-methyl-3,4-dihydro-2H-1,5-benzoxathiepine] registered a melting point of 111 to 113 °C.

For `CCc1cccc(SC[C@@H](C)CN[C@@H]2COc3ccccc3SC2)c1O` (as salt: maleate) [Compound 1-19, 3-(R)-[3-(2-Hydroxy-3-ethylphenylthio)-2-(S)-methylpropyl]amino-3,4-dihydro-2H-1,5-benzoxathiepine], the melting point is 120 °C.

Take `Cc1cccc(SC[C@@H](C)CN[C@@H]2COc3cccc(C)c3SC2)c1O` (as salt: maleate) [Compound 1-22, 3-(R)-[3-(2-Hydroxy-3-methylphenylthio)-2-(S)-methylpropyl]amino-6-methyl-3,4-dihydro-2H-1,5-benzoxathiepine]: the melting point lay in the range of 108 to 109 °C.

Take `C[C@@H](CN[C@@H]1COc2ccccc2SC1)CSc1ccccc1O` (as salt: maleate) [Compound 1-18, 3-(R)-[3-(2-Hydroxyphenylthio)-2-(S)-methylpropyl]amino-3,4-dihydro-2H-1,5-benzoxathiepine]: the melting point was 119 to 121 °C.

Consider `COc1cccc(SC[C@@H](C)CN[C@@H]2COc3ccccc3SC2)c1O` (as salt: maleate) [Compound 1-23, 3-(R)-[3-(2-Hydroxy-3-methoxyphenylthio)-2-(S)-methylpropyl]amino-3,4-dihydro-2H-1,5-benzoxathiepine], for which the melting point lay in the range of 137 to 139 °C.

`CCC[C@H](CN[C@@H]1COc2ccccc2SC1)CSc1ccccc1OC` (as salt: maleate) [Compound 1-12, 3-(R)-[3-(2-Methoxyphenylthio)-2-(R)-(n-propyl)propyl]amino-3,4-dihydro-2H-1,5-benzoxathiepine] came in with a melting point of 131 to 133 °C.

Take `COc1ccccc1SC[C@@H](O)CN[C@@H]1COc2ccccc2SC1` (as salt: maleate) [Compound 1-5, 3-(R)-[3-(2-Methoxyphenylthio)-2-(S)-hydroxypropyl]amino-3,4-dihydro-2H-1,5-benzoxathiepine]: the melting point fell in the range of 133 to 135 °C.

Compound `CC[C@@H](CN[C@@H]1COc2ccccc2SC1)CSc1cccc(C)c1O` (as salt: maleate) [Compound 1-20, 3-(R)-[3-(2-Hydroxy-3-methylphenylthio)-2-(S)-ethylpropyl]amino-3,4-dihydro-2H-1,5-benzoxathiepine] displayed a melting point of 111 to 112 °C.

Turning to `Cc1cccc(O)c1SC[C@@H](C)CN[C@@H]1COc2ccccc2SC1` (as salt: maleate) [Compound 1-26, 3-(R)-[3-(2-Hydroxy-6-methylphenylthio)-2-(S)-methylpropyl]amino-3,4-dihydro-2H-1,5-benzoxathiepine], the melting point was 153 to 154 °C.

Regarding `CC(C)c1cccc(SC[C@@H](C)CN[C@@H]2COc3ccccc3SC2)c1O` (as salt: maleate) [Compound 1-25, 3-(R)-[3-(2-Hydroxy-3-(isopropyl)phenylthio)-2-(S)-methylpropyl]amino-3,4-dihydro-2H-1,5-benzoxathiepine], the melting point worked out at 126 °C.

`Oc1ccccc1SC[C@@H](O)CN[C@@H]1COc2ccccc2SC1` (as salt: oxalate) [Compound 1-3, 3-(R)-[3-(2-Hydroxyphenylthio)-2-(S)-hydroxypropyl]amino-3,4-dihydro-2H-1,5-benzoxathiepine] returned a melting point of 176 to 177 °C.

With `COc1ccccc1SC[C@H](CN[C@@H]1COc2ccccc2SC1)C(C)C` (as salt: maleate) [Compound 1-13, 3-(R)-[3-(2-Methoxyphenylthio)-2-(S)-(isopropyl)propyl]amino-3,4-dihydro-2H-1,5-benzoxathiepine], the melting point lay within 114 to 115 °C.

Consider `CCC[C@@H](CN[C@@H]1COc2ccccc2SC1)CSc1ccccc1OC` (as salt: maleate) [Compound 1-11, 3-(R)-[3-(2-Methoxyphenylthio)-2-(S)-(n-propyl)propyl]amino-3,4-dihydro-2H-1,5-benzoxathiepine], for which the melting point lay within 132 to 133 °C.

In turn, `Cc1cccc(SC[C@@H](C)CN[C@@H]2COc3ccccc3SC2)c1O` (as salt: maleate) [Compound 1-17, 3-(R)-[3-(2-Hydroxy-3-methylphenylthio)-2-(S)-methylpropyl]amino-3,4-dihydro-2H-1,5-benzoxathiepine] registered a melting point of 124 to 126 °C.

Consider `Cc1cccc(SC[C@H](CN[C@@H]2COc3ccccc3SC2)C(C)C)c1O` (as salt: maleate) [Compound 1-21, 3-(R)-[3-(2-Hydroxy-3-methylphenylthio)-2-(S)-(isopropyl)propyl]amino-3,4-dihydro-2H-1,5-benzoxathiepine], for which the melting point turned out to be 127 °C.

The compound `CC[C@H](CN[C@@H]1COc2ccccc2SC1)CSc1ccccc1OC` (as salt: maleate) [Compound 1-10, 3-(R)-[3-(2-Methoxyphenylthio)-2-(R)-ethylpropyl]amino-3,4-dihydro-2H-1,5-benzoxathiepine] yielded a melting point of 140 °C.

With `COc1cccc(SC[C@@H](C)CN[C@@H]2COc3ccccc3SC2)c1OC` (as salt: maleate) [Compound 1-24, 3-(R)-[3-(2,3-Dimethoxyphenylthio)-2-(S)-methylpropyl]amino-3,4-dihydro-2H-1,5-benzoxathiepine], the melting point lay within 117 to 119 °C.

For `COc1ccccc1SC[C@@H](CN[C@@H]1COc2ccccc2SC1)OC` (as salt: maleate) [Compound 1-2, 3-(R)-[3-(2-Methoxyphenylthio)-2-(R)-methoxypropyl]amino-3,4-dihydro-2H-1,5-benzoxathiepine], the melting point stood at 116 °C.

`COc1ccccc1SC[C@@H](C)CN[C@@H]1COc2ccc(C)cc2SC1` (as salt: maleate) [Compound 1-14, 3-(R)-[3-(2-Methoxyphenylthio)-2-(S)-methylpropyl]amino-7-methyl-3,4-dihydro-2H-1,5-benzoxathiepine] showed a melting point of 148 °C.

For `COc1ccccc1SC[C@H](O)CN[C@@H]1COc2ccccc2SC1` (as salt: maleate) [Compound 1-6, 3-(R)-[3-(2-Methoxyphenylthio)-2-(R)-hydroxypropyl]amino-3,4-dihydro-2H-1,5-benzoxathiepine], the melting point lay in the range of 136 to 138 °C.

`Oc1ccccc1SC[C@H](O)CN[C@@H]1COc2ccccc2SC1` (as salt: oxalate) [Compound 1-4, 3-(R)-[3-(2-Hydroxyphenylthio)-2-(R)-hydroxypropyl]amino-3,4-dihydro-2H-1,5-benzoxathiepine]: the melting point was 135 °C.

For `COc1ccccc1SC[C@H](CN[C@@H]1COc2ccccc2SC1)OC` (as salt: maleate) [Compound 1-1, 3-(R)-[3-(2-Methoxyphenylthio)-2-(S)-methoxypropyl]amino-3,4-dihydro-2H-1,5-benzoxathiepine], the melting point came out at 122 °C.

With `CC[C@@H](CN[C@@H]1COc2ccccc2SC1)CSc1ccccc1OC` (as salt: fumarate) [Compound 1-9, 3-(R)-[3-(2-Methoxyphenylthio)-2-(S)-ethylpropyl]amino-3,4-dihydro-2H-1,5-benzoxathiepine], the melting point was 86 to 88 °C.

`C[C@@H](CN[C@@H]1COc2ccccc2SC1)CSc1cccc2c1OCC2` (as salt: maleate) [Compound 1-16, 3-(R)-[3-(2,3-Dihydrobenzofuran-7-thio)-2-(S)-methylpropyl]amino-3,4-dihydro-2H-1,5-benzoxathiepine]: the melting point was in the range of 116 to 118 °C.

The values are drawn from patent US7109234B2, “Benzoxathiepine derivatives and their use as medicines” (Pierre Fabre Medicament, priority 2001, dated 2006).
